In experiment [1] the test system is T1, archaeal class C-like β-lactamase.
T1 construct: gene class C-like beta-lactamase
The experiment can be described thus: nitrocefin hydrolysis, absorbance at […] nm, Michaelis-Menten fit. The class given is biochemical, Methanosarcina sp. The settings on record: room temperature; 4 µM enzyme; 0.05-1.5 mM nitrocefin.

Experiment [2] concerns the target T2, MetbaB (Methanosarcina β-lactamase class B) (Methanosarcina barkeri, UniProt A0A0E3SJT9).
T2 construct: gene MSBR3_0040
The experiment can be described thus: inhibition of nitrocefin hydrolysis, absorbance at […] nm. Type of experiment: biochemical. Conditions: substrate nitrocefin; 1 µg/mL sulbactam; 30 min.

In general, Km refers to the concentration of substrate that gives half-maximal velocity.

Each structure is given as a SMILES string.

T2 sequence (A0A0E3SJT9 1-213 limits assumed): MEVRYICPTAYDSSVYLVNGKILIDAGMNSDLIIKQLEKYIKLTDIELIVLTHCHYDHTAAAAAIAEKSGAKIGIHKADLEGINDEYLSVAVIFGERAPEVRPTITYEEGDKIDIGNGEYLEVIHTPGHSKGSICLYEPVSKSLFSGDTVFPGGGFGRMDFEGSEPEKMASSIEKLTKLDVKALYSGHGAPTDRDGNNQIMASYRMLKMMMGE

With `O=C(Cc1cccs1)N[C@@H]1C(=O)N2C(C(=O)O)=C(/C=C/c3ccc([N+](=O)[O-])cc3[N+](=O)[O-])CS[C@H]12` [nitrocefin], in experiment [1], the Km is 584 µM. For `CC1(C)[C@H](C(=O)O)N2C(=O)C[C@H]2S1(=O)=O` [sulbactam], the “inhibition at 1 μg/mL” value in experiment [2] was “in the presence of sulbactam, no degradation of the nitrocefin β-lactam could be detected”.

Values taken from paper PMC7697635, “Dual RNase and β-lactamase Activity of a Single Enzyme Encoded in Archaea” (Life, 2020).
